Reference: US10040781B2, “Tank-binding kinase inhibitor compounds” (Gilead Sciences, Inc., priority 2014, dated 2018)

Tests used:
[1] = target: IKKε (Homo sapiens (Human), UniProt Q14164); experiment: IKKε TR-FRET enzymatic assay; type: biochemical; details: read-out: IKKe IC50
[2] = target: TBK1 (Homo sapiens (Human), UniProt Q9UHD2); experiment: TBK1 TR-FRET enzymatic assay;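 note: phosphorylation of a biotinylated Ser/Thr peptide by purified full-length recombinant TBK1, read by TR-FRET after 240 min at 25 °C, IC50 is the geometric mean of at least four runs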
[3] = target: hJAK2 (Homo sapiens (Human), UniProt O60674); experiment: hJAK2 LANCE TR-FRET enzymatic assay; type: biochemical; details: read-out: JAK2 IC50
Sequence of hJAK2 (O60674 whole entry): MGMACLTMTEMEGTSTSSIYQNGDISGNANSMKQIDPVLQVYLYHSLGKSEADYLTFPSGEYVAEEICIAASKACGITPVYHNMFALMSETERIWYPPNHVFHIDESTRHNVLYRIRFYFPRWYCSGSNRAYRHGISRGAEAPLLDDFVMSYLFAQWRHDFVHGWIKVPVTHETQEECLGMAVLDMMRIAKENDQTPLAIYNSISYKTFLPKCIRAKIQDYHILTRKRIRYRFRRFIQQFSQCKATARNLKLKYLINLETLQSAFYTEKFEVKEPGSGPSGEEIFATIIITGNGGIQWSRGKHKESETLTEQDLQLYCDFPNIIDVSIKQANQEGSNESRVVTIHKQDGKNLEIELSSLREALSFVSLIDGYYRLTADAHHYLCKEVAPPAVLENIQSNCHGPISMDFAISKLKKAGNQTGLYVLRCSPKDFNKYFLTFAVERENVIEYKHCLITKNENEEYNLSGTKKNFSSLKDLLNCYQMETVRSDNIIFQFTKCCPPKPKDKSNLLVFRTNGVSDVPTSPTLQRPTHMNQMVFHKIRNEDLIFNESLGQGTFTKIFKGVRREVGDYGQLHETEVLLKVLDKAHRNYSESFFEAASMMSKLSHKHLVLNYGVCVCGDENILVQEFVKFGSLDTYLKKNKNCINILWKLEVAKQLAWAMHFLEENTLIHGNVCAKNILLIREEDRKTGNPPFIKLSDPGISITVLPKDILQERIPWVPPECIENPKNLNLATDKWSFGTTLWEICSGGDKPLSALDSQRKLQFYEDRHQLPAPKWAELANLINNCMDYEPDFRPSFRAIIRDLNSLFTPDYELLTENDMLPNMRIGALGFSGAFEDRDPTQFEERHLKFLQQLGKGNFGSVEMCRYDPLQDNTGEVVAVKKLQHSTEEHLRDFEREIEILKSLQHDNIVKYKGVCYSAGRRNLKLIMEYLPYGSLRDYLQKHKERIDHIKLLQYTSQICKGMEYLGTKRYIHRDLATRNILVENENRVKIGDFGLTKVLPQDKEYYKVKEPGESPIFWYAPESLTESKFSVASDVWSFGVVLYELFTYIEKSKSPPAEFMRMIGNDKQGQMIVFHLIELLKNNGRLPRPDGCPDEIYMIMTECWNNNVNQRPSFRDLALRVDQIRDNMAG

Sequence of TBK1 (Q9UHD2 whole entry): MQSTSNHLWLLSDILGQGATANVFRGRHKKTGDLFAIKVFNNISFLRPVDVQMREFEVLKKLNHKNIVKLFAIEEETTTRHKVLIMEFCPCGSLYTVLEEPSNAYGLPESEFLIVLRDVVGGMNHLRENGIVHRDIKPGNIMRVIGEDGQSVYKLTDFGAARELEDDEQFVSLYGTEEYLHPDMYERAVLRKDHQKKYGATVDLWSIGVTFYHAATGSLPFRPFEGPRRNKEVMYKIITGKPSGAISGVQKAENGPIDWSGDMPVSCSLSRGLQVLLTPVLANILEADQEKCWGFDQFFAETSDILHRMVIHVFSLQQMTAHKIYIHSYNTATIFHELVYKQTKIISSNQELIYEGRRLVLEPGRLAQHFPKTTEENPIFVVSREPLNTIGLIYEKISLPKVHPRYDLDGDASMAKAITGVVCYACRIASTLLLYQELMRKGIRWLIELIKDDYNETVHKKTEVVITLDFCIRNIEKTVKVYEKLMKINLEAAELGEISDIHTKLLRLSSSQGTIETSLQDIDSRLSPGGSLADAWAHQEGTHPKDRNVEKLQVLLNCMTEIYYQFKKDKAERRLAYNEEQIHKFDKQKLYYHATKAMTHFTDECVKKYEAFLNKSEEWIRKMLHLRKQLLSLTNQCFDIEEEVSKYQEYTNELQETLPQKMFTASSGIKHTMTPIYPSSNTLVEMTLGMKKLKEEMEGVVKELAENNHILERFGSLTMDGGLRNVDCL
Sequence of IKKε (Q14164 whole entry): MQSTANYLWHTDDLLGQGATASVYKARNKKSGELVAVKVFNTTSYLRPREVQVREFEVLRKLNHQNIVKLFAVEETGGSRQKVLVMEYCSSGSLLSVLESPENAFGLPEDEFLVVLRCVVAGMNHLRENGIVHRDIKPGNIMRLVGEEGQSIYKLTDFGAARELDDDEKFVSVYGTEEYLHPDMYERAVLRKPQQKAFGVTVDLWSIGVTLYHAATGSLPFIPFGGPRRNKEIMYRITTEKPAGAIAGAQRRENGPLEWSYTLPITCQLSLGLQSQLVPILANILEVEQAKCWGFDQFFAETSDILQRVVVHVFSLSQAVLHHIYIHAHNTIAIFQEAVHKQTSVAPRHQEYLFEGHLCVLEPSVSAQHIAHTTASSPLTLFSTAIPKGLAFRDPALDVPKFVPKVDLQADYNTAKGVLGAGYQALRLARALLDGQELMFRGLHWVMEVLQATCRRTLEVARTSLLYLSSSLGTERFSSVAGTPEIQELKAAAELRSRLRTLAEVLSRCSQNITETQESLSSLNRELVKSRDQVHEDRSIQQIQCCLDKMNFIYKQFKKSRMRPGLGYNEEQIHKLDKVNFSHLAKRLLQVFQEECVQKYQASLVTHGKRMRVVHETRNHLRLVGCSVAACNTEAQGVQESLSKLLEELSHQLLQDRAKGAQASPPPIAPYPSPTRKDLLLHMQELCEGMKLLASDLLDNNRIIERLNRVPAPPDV

CC(C)(O)c1cccc(Nc2ncnc(-c3ccc(OC4CCOCC4)c(C#N)c3)n2)c1 [Example 47, 5-(4-((3-(2-hydroxypropan-2-yl)phenyl)amino)-1,3,5-triazin-2-yl)-2-((tetrahydro-2H-pyran-4-yl)oxy)benzonitrile]
IC50 [1]: 14 nM
IC50 [2]: 2 nM
IC50 [3]: 811 nM

N#Cc1cc(-c2ncnc(Nc3cccc(C(O)C(F)(F)F)c3)n2)ccc1OC1CCOCC1 (stereo not drawn) [Example 48, 2-((tetrahydro-2H-pyran-4-yl)oxy)-5-(4-((3-(2,2,2-trifluoro-1-hydroxyethyl)phenyl)amino)-1,3,5-triazin-2-yl)benzonitrile]
IC50 [1]: 31 nM
IC50 [2]: 3 nM
IC50 [3]: > 1000 nM

N#Cc1cc(-c2ncnc(Nc3ccc(N4CCOCC4)cc3)n2)ccc1OC1CCOCC1 [Example 49, 5-(4-((4-morpholinophenyl)amino)-1,3,5-triazin-2-yl)-2-((tetrahydro-2H-pyran-4-yl)oxy)benzonitrile]
IC50 [1]: 7 nM
IC50 [2]: 2 nM
IC50 [3]: 436 nM

N#Cc1cc(-c2ncnc(Nc3ccc(N4CCN(C5COC5)CC4)cc3)n2)ccc1OC1CCN(C(=O)CNC=O)CC1 [Example 51, N-(2-(4-(2-cyano-4-(4-((4-(4-(oxetan-3-yl)piperazin-1-yl)phenyl)amino)-1,3,5-triazin-2-yl)phenoxy)piperidin-1-yl)-2-oxoethyl)formamide]
IC50 [1]: 79 nM
IC50 [2]: 26 nM
IC50 [3]: 408 nM

CC(=O)NCC(=O)N1CCC(Oc2ccc(-c3ncnc(Nc4ccc(N5CCN(C6COC6)CC5)cc4)n3)cc2C#N)CC1 [Example 52, N-(2-(4-(2-cyano-4-(4-((4-(4-(oxetan-3-yl)piperazin-1-yl)phenyl)amino)-1,3,5-triazin-2-yl)phenoxy)piperidin-1-yl)-2-oxoethyl)acetamide]
IC50 [1]: 223 nM
IC50 [2]: 65 nM
IC50 [3]: 491 nM

N#Cc1cc(-c2ncnc(Nc3ccc(N4CCOCC4)cc3)n2)ccc1N1CCCC1 [Example 53, 5-(4-((4-morpholinophenyl)amino)-1,3,5-triazin-2-yl)-2-(pyrrolidin-1-yl)benzonitrile]
IC50 [1]: 18 nM
IC50 [2]: 5 nM
IC50 [3]: 261 nM

N#Cc1cc(-c2ncnc(Nc3ccc(C4CCN(C5COC5)CC4)cc3)n2)ccc1OC1CCOCC1 [Example 54, 5-(4-((4-(1-(oxetan-3-yl)piperidin-4-yl)phenyl)amino)-1,3,5-triazin-2-yl)-2-((tetrahydro-2H-pyran-4-yl)oxy)benzonitrile]
IC50 [1]: 4 nM
IC50 [2]: 2 nM
IC50 [3]: > 1000 nM

N#Cc1cc(-c2ncnc(Nc3ccc(C(N)=O)cc3)n2)ccc1OC1CCOCC1 [Example 55]
IC50 [1]: 5 nM
IC50 [2]: 2 nM
IC50 [3]: > 1000 nM

N#Cc1cc(-c2ncnc(Nc3ccc(C4CCN(C5COC5)CC4)cc3)n2)ccc1OC1CCN(C(=O)CO)CC1 [Example 56, 2-((1-(2-hydroxyacetyl)piperidin-4-yl)oxy)-5-(4-((4-(1-(oxetan-3-yl)piperidin-4-yl)phenyl)amino)-1,3,5-triazin-2-yl)benzonitrile]
IC50 [1]: 3 nM
IC50 [2]: 2 nM
IC50 [3]: > 1000 nM

CS(=O)(=O)c1ccc(Nc2ncnc(-c3ccc(OC4CCN(C(=O)CO)CC4)c(C#N)c3)n2)cc1 [Example 57, 2-((1-(2-hydroxyacetyl)piperidin-4-yl)oxy)-5-(4-((4-(methylsulfonyl)phenyl)amino)-1,3,5-triazin-2-yl)benzonitrile]
IC50 [1]: 8 nM
IC50 [2]: 5 nM
IC50 [3]: > 1000 nM

N#Cc1cc(-c2ncnc(Nc3ccc(N4CCN(C5COC5)CC4)cc3)n2)ccc1OCC1CC1 [Example 58, 2-(cyclopropylmethoxy)-5-(4-((4-(4-(oxetan-3-yl)piperazin-1-yl)phenyl)amino)-1,3,5-triazin-2-yl)benzonitrile]
IC50 [1]: 4 nM
IC50 [2]: 2 nM
IC50 [3]: 455 nM

Cn1ccc(Nc2ncnc(-c3ccc(OC4CCOCC4)c(C#N)c3)n2)n1 [Example 59, 5-(4-((1-methyl-1H-pyrazol-3-yl)amino)-1,3,5-triazin-2-yl)-2-((tetrahydro-2H-pyran-4-yl)oxy)benzonitrile]
IC50 [1]: 83 nM
IC50 [2]: 55 nM
IC50 [3]: > 1000 nM

N#Cc1cc(-c2ncnc(Nc3ccc(N4CCN(C5COC5)CC4)cc3)n2)ccc1OC1CCC(F)(F)CC1 [Example 60, 2-((4,4-difluorocyclohexyl)oxy)-5-(4-((4-(4-(oxetan-3-yl)piperazin-1-yl)phenyl)amino)-1,3,5-triazin-2-yl)benzonitrile]
IC50 [1]: 7 nM
IC50 [2]: 3 nM
IC50 [3]: 655 nM

CN1CCN(c2cccc(Nc3ncnc(-c4ccc(OC5CCOCC5)c(C#N)c4)n3)c2)CC1 [Example 62, 5-(4-((3-(4-methylpiperazin-1-yl)phenyl)amino)-1,3,5-triazin-2-yl)-2-((tetrahydro-2H-pyran-4-yl)oxy)benzonitrile]
IC50 [1]: 3 nM
IC50 [2]: 5 nM
IC50 [3]: > 1000 nM

N#Cc1cc(-c2ncnc(Nc3cccc(N4CCOCC4)c3)n2)ccc1OC1CCOCC1 [Example 63, 5-(4-((3-morpholinophenyl)amino)-1,3,5-triazin-2-yl)-2-((tetrahydro-2H-pyran-4-yl)oxy)benzonitrile]
IC50 [1]: 8 nM
IC50 [2]: 4 nM
IC50 [3]: 938 nM

N#Cc1cc(-c2ncnc(Nc3ccc(C4CCN(CC(F)F)CC4)cc3)n2)ccc1OC1CCOCC1 [Example 65, 5-(4-((4-(1-(2,2-difluoroethyl)piperidin-4-yl)phenyl)amino)-1,3,5-triazin-2-yl)-2-((tetrahydro-2H-pyran-4-yl)oxy)benzonitrile]
IC50 [1]: 11 nM
IC50 [2]: 4 nM
IC50 [3]: > 1000 nM

CS(=O)(=O)N1CCN(c2ccc(Nc3ncnc(-c4ccc(OC5CCOCC5)c(C#N)c4)n3)cc2)CC1 [Example 66, 5-(4-((4-(4-(methylsulfonyl)piperazin-1-yl)phenyl)amino)-1,3,5-triazin-2-yl)-2-((tetrahydro-2H-pyran-4-yl)oxy)benzonitrile]
IC50 [1]: 5 nM
IC50 [2]: 2 nM
IC50 [3]: 345 nM

N#Cc1cc(-c2ncnc(Nc3ccc(N4CCN(C5COC5)CC4)cc3)n2)ccc1OC1CCOCC1 [Example 67, 5-(4-((4-(4-(oxetan-3-yl)piperazin-1-yl)phenyl)amino)-1,3,5-triazin-2-yl)-2-((tetrahydro-2H-pyran-4-yl)oxy)benzonitrile]
IC50 [1]: 6 nM
IC50 [2]: 2 nM
IC50 [3]: 802 nM

N#Cc1cc(-c2ncnc(Nc3ccc(C(=O)C(F)(F)F)cc3)n2)ccc1OC1CCOCC1 [Example 68, 2-((tetrahydro-2H-pyran-4-yl)oxy)-5-(4-((4-(2,2,2-trifluoroacetyl)phenyl)amino)-1,3,5-triazin-2-yl)benzonitrile]
IC50 [1]: 11 nM
IC50 [2]: 2 nM
IC50 [3]: 415 nM

N#Cc1cc(-c2ncnc(Nc3cccc(N4CCN(C5COC5)CC4)c3)n2)ccc1OC1CCOCC1 [Example 69, 5-(4-((3-(4-(oxetan-3-yl)piperazin-1-yl)phenyl)amino)-1,3,5-triazin-2-yl)-2-((tetrahydro-2H-pyran-4-yl)oxy)benzonitrile]
IC50 [1]: 4 nM
IC50 [2]: 6 nM
IC50 [3]: > 1000 nM

N#Cc1cc(-c2ncnc(Nc3ccc(N4CCN(C5COC5)CC4)cc3)n2)ccc1OC1CCN(C(=O)C2(O)CC2)CC1 [Example 70, 2-((1-(1-hydroxycyclopropanecarbonyl)piperidin-4-yl)oxy)-5-(4-((4-(4-(oxetan-3-yl)piperazin-1-yl)phenyl)amino)-1,3,5-triazin-2-yl)benzonitrile]
IC50 [1]: 70 nM
IC50 [2]: 28 nM
IC50 [3]: 918 nM

COc1cc(Nc2ncnc(-c3ccc(OC4CCOCC4)c(C#N)c3)n2)ccc1C(=O)N1CCN(C2COC2)CC1 [Example 71, 5-(4-((3-methoxy-4-(4-(oxetan-3-yl)piperazine-1-carbonyl)phenyl)amino)-1,3,5-triazin-2-yl)-2-((tetrahydro-2H-pyran-4-yl)oxy)benzonitrile]
IC50 [1]: 10 nM
IC50 [2]: 2 nM
IC50 [3]: > 1000 nM

COc1ccc(Nc2ncnc(-c3ccc(OC4CCOCC4)c(C#N)c3)n2)cc1 [Example 72, 5-(4-((4-methoxyphenyl)amino)-1,3,5-triazin-2-yl)-2-((tetrahydro-2H-pyran-4-yl)oxy)benzonitrile]
IC50 [1]: 21 nM
IC50 [2]: 5 nM
IC50 [3]: > 1000 nM

Cn1nccc1Nc1ncnc(-c2ccc(OC3CCOCC3)c(C#N)c2)n1 [Example 73, 5-(4-((1-methyl-1H-pyrazol-5-yl)amino)-1,3,5-triazin-2-yl)-2-((tetrahydro-2H-pyran-4-yl)oxy)benzonitrile]
IC50 [1]: 202 nM
IC50 [2]: 90 nM
IC50 [3]: > 1000 nM

N#Cc1cc(-c2ncnc(Nc3cc(F)c(N4CCN(C5COC5)CC4)c(F)c3)n2)ccc1OC1CCOCC1 [Example 74, 5-(4-((3,5-difluoro-4-(4-(oxetan-3-yl)piperazin-1-yl)phenyl)amino)-1,3,5-triazin-2-yl)-2-((tetrahydro-2H-pyran-4-yl)oxy)benzonitrile]
IC50 [1]: 12 nM
IC50 [2]: 3 nM
IC50 [3]: > 1000 nM

N#Cc1cc(-c2ncnc(Nc3ccc(C(=O)NC4COC4)cc3)n2)ccc1OC1CCOCC1 [Example 75, 4-((4-(3-cyano-4-((tetrahydro-2H-pyran-4-yl)oxy)phenyl)-1,3,5-triazin-2-yl)amino)-N-(oxetan-3-yl)benzamide]
IC50 [1]: 12 nM
IC50 [2]: 3 nM
IC50 [3]: 899 nM

CN1CCC(c2ccc(Nc3ncnc(-c4ccc(OC5CCOCC5)c(C#N)c4)n3)cc2)CC1 [Example 76, 5-(4-((4-(1-methylpiperidin-4-yl)phenyl)amino)-1,3,5-triazin-2-yl)-2-((tetrahydro-2H-pyran-4-yl)oxy)benzonitrile]
IC50 [1]: 3 nM
IC50 [2]: 1 nM
IC50 [3]: 575 nM

COc1ccc(Nc2ncnc(-c3ccc(OC4CCOCC4)c(C#N)c3)n2)cn1 [Example 77, 5-(4-((6-methoxypyridin-3-yl)amino)-1,3,5-triazin-2-yl)-2-((tetrahydro-2H-pyran-4-yl)oxy)benzonitrile]
IC50 [1]: 55 nM
IC50 [2]: 21 nM
IC50 [3]: > 1000 nM
